From ChEMBL document CHEMBL5649166, “RIP3 induces apoptosis independent of pronecrotic kinase activity” (Mol Cell, 2014)

Experiments:
[1] = target: Dual specificity tyrosine-phosphorylation-regulated kinase 1A (Homo sapiens) (UniProt Q13627); assay: Residual activity of human DYRK1/DYRK1A using RRRFRPASPLRGPPK as substrate at 1 uM in presence of 32P-ATP by Hotspot assay relative to control
[2] = target: T1, G protein-coupled receptor kinase 3 (Homo sapiens) (UniProt P35626); assay: Inhibition of human GRK3 using casein as substrate at 1 uM in presence of 32P-ATP by Hotspot assay relative to control; values are per cent of control
T1 sequence (whole entry): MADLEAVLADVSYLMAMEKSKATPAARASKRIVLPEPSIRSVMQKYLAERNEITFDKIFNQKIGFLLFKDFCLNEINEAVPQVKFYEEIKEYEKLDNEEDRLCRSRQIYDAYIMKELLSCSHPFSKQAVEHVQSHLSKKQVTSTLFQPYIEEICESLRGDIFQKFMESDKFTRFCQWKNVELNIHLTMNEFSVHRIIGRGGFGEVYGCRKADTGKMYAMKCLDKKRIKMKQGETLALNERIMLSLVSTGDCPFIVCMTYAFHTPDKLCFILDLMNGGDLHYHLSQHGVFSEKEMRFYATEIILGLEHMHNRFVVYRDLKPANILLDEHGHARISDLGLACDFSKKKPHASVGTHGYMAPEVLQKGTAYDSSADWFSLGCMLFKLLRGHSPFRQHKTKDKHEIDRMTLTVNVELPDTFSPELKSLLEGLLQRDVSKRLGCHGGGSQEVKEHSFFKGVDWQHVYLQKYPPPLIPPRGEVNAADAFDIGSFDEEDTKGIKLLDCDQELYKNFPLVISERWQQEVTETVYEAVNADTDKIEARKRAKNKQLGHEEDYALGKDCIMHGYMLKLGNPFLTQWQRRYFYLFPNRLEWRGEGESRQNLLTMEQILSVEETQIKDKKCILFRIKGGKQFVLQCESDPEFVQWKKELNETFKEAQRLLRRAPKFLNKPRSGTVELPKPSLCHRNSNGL

[3] = target: Serine/threonine-protein kinase PAK 4 (Homo sapiens) (UniProt O96013); assay: Inhibition of human PAK4 using RRRLSFAEPG as substrate at 1 uM in presence of 32P-ATP by Hotspot assay relative to control; values are per cent of control
Chain of Serine/threonine-protein kinase PAK 4 (Homo sapiens) (O96013 whole entry, looked up): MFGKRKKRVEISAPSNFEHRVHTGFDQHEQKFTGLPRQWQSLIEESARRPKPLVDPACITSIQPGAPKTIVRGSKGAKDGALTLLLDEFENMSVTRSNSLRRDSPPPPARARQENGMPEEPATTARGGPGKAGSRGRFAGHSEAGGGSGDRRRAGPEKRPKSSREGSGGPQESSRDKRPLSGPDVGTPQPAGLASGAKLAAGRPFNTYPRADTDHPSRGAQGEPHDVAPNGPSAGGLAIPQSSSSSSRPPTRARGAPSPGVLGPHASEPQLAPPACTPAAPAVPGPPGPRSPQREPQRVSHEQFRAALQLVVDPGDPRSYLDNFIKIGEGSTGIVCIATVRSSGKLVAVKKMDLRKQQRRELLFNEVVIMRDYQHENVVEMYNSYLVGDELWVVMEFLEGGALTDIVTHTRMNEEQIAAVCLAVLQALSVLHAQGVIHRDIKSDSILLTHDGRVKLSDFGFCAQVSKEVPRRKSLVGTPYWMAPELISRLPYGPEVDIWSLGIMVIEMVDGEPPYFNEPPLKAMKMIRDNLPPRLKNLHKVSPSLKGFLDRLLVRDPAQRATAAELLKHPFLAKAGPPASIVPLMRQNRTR

[4] = target: Casein kinase II subunit alpha' (Homo sapiens) (UniProt P19784); assay: Inhibition of human CK2a2 using RRRDDDSDDD as substrate at 1 uM in presence of 32P-ATP by Hotspot assay relative to control; values are per cent of control
Chain of Casein kinase II subunit alpha' (Homo sapiens) (P19784 whole entry, looked up, canonical isoform): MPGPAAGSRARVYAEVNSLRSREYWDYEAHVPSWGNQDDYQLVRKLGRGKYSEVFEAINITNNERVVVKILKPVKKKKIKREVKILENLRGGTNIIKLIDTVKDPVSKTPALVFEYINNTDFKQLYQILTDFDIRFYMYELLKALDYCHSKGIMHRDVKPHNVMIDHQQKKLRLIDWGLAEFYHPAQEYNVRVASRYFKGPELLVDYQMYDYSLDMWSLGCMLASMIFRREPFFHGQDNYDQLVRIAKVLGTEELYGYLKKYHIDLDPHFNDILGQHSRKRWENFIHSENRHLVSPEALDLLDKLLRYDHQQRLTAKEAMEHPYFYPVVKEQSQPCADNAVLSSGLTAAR

[5] = target: Phosphorylase b kinase gamma catalytic chain, skeletal muscle/heart isoform (Homo sapiens) (UniProt Q16816); assay: Inhibition of human PHKg1 using KKLNRTLSFAEPG as substrate at 1 uM in presence of 32P-ATP by Hotspot assay relative to control; values are per cent of control
Chain of Phosphorylase b kinase gamma catalytic chain, skeletal muscle/heart isoform (Homo sapiens) (Q16816 whole entry, looked up, canonical isoform): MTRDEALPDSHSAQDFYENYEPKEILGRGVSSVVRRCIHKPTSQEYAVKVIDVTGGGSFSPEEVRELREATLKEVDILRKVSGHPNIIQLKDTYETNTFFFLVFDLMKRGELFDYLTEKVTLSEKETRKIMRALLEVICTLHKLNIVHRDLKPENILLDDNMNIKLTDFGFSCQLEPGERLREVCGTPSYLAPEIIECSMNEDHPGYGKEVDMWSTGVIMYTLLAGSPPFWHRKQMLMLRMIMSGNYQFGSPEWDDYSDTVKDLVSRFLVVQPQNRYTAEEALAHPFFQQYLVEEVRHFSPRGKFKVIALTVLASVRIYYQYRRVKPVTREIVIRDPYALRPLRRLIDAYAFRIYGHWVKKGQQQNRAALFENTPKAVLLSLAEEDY

[6] = target: Focal adhesion kinase 1 (Homo sapiens) (UniProt Q05397); assay: Inhibition of human FAK/PTK2 using poly[Glu:Tyr] (4:1) as substrate at 1 uM in presence of 32P-ATP by Hotspot assay relative to control; values are per cent of control
Chain of Focal adhesion kinase 1 (Homo sapiens) (Q05397 2-1052 limits assumed): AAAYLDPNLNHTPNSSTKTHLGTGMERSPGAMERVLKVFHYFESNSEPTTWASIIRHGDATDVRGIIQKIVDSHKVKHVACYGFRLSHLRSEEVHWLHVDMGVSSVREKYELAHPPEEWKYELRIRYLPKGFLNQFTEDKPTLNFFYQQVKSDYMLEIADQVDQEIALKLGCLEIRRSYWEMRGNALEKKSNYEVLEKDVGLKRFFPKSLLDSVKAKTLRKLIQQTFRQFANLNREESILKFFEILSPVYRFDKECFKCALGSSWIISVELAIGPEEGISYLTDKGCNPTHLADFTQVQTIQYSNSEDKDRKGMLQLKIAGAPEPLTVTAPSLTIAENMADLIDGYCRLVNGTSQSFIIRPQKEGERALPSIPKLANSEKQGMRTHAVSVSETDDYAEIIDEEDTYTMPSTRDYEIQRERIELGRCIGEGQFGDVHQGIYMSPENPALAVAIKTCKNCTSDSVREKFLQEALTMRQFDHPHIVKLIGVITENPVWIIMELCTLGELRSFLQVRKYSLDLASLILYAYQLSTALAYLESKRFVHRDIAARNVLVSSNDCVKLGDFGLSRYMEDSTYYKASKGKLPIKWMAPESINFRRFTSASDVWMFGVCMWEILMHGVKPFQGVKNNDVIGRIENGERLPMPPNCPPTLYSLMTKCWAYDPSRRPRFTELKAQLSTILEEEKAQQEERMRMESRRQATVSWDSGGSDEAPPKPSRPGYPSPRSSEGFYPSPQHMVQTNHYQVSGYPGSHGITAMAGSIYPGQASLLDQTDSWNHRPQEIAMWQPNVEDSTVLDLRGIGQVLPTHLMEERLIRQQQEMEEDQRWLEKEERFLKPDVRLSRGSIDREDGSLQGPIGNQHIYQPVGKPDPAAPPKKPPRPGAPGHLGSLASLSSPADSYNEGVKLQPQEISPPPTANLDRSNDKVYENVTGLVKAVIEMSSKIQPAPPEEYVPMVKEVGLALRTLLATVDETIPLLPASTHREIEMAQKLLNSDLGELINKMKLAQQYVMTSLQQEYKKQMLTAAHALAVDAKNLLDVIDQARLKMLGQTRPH

[7] = target: Receptor tyrosine-protein kinase erbB-2 (Homo sapiens) (UniProt P04626); assay: Inhibition of human ERBB2/HER2 using poly[Glu:Tyr] (4:1) as substrate at 1 uM in presence of 32P-ATP by Hotspot assay relative to control; values are per cent of control
Chain of Receptor tyrosine-protein kinase erbB-2 (Homo sapiens) (P04626 whole entry): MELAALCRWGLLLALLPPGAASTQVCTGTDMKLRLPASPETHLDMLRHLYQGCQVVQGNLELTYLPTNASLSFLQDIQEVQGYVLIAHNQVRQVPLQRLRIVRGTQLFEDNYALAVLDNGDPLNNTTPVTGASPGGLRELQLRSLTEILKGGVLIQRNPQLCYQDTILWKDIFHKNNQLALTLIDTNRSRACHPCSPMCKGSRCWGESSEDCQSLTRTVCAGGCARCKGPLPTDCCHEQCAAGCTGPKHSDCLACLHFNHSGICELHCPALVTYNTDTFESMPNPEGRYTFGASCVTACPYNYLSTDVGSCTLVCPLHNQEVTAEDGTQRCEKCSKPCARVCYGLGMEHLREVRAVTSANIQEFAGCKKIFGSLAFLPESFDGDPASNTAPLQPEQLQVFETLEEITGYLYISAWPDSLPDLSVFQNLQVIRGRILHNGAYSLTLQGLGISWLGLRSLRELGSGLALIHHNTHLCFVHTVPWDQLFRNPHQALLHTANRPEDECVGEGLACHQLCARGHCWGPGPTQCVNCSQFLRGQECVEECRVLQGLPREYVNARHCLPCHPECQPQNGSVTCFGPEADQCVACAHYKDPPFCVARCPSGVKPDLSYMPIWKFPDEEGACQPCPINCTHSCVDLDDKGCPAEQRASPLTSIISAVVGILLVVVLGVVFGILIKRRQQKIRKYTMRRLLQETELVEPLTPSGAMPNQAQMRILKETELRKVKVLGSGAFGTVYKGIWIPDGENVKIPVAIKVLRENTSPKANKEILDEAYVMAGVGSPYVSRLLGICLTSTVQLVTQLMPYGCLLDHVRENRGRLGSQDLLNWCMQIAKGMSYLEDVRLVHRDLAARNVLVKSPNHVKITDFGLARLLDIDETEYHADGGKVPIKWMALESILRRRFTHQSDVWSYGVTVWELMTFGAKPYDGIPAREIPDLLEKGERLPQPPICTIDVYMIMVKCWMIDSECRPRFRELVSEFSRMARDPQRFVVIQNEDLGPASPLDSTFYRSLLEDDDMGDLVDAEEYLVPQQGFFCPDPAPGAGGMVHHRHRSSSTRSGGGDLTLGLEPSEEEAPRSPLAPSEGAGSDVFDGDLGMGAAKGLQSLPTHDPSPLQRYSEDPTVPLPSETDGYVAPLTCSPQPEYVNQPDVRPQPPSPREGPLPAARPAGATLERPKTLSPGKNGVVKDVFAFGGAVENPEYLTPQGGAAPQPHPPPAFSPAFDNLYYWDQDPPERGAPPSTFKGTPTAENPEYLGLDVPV

[8] = target: Serine/threonine-protein kinase 24 (Homo sapiens) (UniProt Q9Y6E0); assay: Inhibition of human MST3/STK24 using myelin basic protein as substrate at 1 uM in presence of 32P-ATP by Hotspot assay relative to control; values are per cent of control
Chain of Serine/threonine-protein kinase 24 (Homo sapiens) (Q9Y6E0 whole entry, looked up): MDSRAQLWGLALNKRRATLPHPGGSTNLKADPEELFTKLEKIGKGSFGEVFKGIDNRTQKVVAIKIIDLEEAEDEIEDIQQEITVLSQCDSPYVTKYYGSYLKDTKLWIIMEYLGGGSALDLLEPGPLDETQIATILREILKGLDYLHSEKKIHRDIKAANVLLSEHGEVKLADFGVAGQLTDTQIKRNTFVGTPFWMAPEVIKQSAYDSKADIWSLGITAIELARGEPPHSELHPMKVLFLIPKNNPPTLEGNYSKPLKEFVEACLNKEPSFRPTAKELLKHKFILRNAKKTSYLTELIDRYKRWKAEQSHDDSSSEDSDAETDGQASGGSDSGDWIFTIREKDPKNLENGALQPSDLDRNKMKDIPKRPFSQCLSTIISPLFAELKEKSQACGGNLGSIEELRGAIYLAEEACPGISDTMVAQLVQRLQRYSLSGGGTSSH

[9] = target: T2, Inhibitor of nuclear factor kappa-B kinase subunit alpha (Homo sapiens) (UniProt O15111); assay: Inhibition of human IKKa/CHUK using KKKKERLLDDRHDSGLDSMKDEE as substrate at 1 uM in presence of 32P-ATP by Hotspot assay relative to control; values are per cent of control
T2 sequence (whole entry): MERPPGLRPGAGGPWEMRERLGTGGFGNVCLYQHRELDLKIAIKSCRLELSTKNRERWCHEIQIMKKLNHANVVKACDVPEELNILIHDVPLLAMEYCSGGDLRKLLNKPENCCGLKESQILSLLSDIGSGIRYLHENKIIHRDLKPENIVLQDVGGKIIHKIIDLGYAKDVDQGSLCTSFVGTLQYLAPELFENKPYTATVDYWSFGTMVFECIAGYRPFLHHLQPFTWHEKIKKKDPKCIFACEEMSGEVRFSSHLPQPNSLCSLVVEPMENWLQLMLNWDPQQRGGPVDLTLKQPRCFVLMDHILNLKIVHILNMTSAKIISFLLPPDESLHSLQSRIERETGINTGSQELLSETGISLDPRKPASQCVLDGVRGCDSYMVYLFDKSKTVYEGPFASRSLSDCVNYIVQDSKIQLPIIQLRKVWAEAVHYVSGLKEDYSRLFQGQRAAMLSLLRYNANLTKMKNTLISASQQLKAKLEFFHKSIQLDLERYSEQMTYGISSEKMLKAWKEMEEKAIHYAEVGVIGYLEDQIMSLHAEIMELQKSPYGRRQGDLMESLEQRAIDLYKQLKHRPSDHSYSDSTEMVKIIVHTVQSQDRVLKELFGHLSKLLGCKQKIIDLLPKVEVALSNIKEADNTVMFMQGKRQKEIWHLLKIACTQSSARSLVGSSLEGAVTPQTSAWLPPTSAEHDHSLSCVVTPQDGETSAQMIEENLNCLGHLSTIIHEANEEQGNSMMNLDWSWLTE

Row | Compound | residual activity [1] | residual activity [2] | residual activity [3] | residual activity [4] | residual activity [5] | residual activity [6] | residual activity [7] | residual activity [8] | residual activity [9]
1 | Cc1cc(-c2cnc(N)c3c(-c4ccc5scnc5c4)csc23)n(C)n1 | 99.6% | 80.9% | 100% | 88.9% | 96.8% | 97.3% | 92.3% | 93.9% | 94.8%
2 | CC(C)S(=O)(=O)c1ccc2nccc(Nc3ccc4scnc4c3)c2c1 | 98.8% | 99.5% | 99% | 97.1% | 94.8% | 93.9% | 85% | 100% | 88.2%
3 | CNC(=O)c1ccc2c(c1)ncn2-c1ccc(CC(=O)OC(C)(C)C)cc1 | 99.4% | 108% | 99.6% | 96.3% | 101% | 102% | 100% | 94% | 89.9%
